One block for each compound: values may come before it.
How the values were obtained:
[1] = biological target: Tyrosine-protein kinase receptor UFO (Homo sapiens) (UniProt P30530); experiment: Selectivity interaction (Kinase panel (Invitrogen)) EUB0000639a AXL; conditions: at 200 nM
[2] = biological target: Tyrosine-protein kinase Lyn (Homo sapiens, UniProt P07948); experiment: Selectivity interaction (Kinase panel (Invitrogen)) EUB0000639a LYN; conditions: at 200 nM
[3] = biological target: T1, Lymphokine-activated killer T-cell-originated protein kinase (Homo sapiens) (UniProt Q96KB5); experiment: Selectivity interaction (ProQinase) EUB0000171b PBK
T1 sequence (whole entry): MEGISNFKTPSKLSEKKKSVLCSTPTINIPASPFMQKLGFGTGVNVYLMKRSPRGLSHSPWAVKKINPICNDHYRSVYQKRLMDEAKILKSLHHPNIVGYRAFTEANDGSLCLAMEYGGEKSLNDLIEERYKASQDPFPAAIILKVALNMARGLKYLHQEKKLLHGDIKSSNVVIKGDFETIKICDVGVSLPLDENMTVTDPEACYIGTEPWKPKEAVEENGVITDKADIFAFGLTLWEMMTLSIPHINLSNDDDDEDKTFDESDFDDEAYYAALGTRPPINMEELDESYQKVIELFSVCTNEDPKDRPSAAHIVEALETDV

[4] = biological target: T2, Histone-lysine N-methyltransferase EHMT2 (Homo sapiens) (UniProt Q96KQ7); experiment: Selectivity interaction (Methyltransferase screen (radiometric assays, panel of 8 PRMTs, 21 protein lysine methyltransferases, 3 DNA methyltransferases, and one RNA methyltransferase)) EUB0000271b EHMT2
T2 sequence (whole entry): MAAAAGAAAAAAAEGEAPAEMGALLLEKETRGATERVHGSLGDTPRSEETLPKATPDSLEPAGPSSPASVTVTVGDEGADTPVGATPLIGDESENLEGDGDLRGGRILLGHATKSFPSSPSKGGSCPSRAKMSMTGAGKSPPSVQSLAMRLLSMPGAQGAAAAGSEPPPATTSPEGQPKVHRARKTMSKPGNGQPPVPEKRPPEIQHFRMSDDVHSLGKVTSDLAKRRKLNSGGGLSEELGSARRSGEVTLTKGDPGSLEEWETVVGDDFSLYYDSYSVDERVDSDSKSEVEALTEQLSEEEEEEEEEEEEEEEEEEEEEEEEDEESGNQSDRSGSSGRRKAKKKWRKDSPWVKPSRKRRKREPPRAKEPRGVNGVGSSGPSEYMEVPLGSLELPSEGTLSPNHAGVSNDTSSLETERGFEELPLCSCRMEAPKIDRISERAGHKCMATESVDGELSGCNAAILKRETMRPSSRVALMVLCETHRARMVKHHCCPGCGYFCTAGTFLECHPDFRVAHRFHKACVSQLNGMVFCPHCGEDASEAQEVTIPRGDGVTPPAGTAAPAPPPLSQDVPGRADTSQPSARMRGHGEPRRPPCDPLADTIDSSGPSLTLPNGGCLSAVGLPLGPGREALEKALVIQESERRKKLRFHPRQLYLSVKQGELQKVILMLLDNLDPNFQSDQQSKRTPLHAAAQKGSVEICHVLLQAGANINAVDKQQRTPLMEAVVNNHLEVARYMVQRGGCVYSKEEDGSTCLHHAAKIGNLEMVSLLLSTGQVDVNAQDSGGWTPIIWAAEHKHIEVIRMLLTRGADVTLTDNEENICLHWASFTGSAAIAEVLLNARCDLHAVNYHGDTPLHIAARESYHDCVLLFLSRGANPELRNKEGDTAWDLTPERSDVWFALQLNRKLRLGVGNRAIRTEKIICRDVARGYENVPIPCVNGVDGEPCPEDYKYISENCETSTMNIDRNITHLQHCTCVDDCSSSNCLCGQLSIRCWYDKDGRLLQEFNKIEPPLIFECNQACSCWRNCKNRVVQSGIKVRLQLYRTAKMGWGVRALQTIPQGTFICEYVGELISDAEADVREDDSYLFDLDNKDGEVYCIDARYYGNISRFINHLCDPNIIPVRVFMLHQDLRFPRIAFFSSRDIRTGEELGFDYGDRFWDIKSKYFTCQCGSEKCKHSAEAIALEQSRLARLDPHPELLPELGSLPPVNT

[5] = biological target: Ribosomal protein S6 kinase alpha-2 (Homo sapiens) (UniProt Q15349); experiment: Selectivity interaction (KinomeScan (DiscoverX)) EUB0000695a RPS6KA2; conditions: at 100 nM
Chain of Ribosomal protein S6 kinase alpha-2 (Homo sapiens) (Q15349 whole entry): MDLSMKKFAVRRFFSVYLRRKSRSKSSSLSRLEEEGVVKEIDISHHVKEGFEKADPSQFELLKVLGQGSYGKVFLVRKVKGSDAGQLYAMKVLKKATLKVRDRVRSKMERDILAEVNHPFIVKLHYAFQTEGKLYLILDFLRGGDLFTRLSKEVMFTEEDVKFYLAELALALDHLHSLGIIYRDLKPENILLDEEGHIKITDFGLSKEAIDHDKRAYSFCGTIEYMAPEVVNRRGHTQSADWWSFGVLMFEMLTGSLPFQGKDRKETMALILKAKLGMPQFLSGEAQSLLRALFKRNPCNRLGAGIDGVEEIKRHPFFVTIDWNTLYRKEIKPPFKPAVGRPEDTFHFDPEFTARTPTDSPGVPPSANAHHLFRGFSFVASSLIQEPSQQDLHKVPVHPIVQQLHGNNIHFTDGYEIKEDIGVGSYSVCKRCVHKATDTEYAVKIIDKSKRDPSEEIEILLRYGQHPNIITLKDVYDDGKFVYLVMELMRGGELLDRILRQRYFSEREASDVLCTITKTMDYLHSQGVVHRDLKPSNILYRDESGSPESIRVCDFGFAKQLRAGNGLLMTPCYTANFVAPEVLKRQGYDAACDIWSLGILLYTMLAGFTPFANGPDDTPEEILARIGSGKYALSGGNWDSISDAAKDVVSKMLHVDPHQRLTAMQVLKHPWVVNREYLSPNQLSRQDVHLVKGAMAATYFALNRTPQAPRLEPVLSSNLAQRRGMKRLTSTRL

[6] = biological target: T3, Ephrin type-A receptor 1 (Homo sapiens) (UniProt P21709); experiment: Selectivity interaction (KinomeScan (DiscoverX)) EUB0000045b EPHA1
T3 sequence (whole entry): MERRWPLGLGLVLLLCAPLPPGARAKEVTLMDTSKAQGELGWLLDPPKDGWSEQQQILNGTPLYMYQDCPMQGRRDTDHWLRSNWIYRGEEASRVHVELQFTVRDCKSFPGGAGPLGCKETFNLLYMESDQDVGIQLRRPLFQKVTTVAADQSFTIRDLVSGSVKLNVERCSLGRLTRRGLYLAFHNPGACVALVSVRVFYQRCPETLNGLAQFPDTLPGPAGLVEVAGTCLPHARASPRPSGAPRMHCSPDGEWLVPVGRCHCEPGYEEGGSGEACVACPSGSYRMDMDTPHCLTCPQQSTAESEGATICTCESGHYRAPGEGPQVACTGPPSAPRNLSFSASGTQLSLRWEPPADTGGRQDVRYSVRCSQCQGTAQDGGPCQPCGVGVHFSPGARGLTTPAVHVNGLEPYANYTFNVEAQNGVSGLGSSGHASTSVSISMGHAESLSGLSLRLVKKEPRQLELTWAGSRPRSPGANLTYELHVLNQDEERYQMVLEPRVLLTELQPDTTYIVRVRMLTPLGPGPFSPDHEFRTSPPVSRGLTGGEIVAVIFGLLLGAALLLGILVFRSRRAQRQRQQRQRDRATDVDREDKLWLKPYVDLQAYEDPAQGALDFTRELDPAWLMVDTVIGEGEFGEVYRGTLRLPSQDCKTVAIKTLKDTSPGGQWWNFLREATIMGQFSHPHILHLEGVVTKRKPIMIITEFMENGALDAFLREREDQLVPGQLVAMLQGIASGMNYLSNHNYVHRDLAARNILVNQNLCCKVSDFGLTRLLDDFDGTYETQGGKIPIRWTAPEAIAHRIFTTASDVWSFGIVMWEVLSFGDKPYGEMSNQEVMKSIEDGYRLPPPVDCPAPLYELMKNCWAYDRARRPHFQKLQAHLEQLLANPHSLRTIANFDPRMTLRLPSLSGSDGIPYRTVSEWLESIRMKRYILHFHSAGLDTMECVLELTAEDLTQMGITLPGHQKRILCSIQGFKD

Chain of Tyrosine-protein kinase Lyn (P07948 2-512 limits assumed): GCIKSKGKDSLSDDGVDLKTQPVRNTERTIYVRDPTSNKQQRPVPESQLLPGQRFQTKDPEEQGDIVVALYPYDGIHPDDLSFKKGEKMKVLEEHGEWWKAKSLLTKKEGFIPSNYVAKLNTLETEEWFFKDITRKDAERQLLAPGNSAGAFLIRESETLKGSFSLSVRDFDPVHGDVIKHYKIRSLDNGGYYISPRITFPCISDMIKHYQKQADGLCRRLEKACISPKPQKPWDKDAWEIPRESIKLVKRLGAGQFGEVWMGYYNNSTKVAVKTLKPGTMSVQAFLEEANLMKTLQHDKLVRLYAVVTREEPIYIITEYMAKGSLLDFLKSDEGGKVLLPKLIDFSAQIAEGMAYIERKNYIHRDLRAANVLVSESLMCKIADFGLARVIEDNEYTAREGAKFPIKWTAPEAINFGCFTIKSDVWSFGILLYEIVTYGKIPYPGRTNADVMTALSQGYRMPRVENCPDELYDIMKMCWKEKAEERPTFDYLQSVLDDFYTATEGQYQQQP
Chain of Tyrosine-protein kinase receptor UFO (Homo sapiens) (P30530 whole entry): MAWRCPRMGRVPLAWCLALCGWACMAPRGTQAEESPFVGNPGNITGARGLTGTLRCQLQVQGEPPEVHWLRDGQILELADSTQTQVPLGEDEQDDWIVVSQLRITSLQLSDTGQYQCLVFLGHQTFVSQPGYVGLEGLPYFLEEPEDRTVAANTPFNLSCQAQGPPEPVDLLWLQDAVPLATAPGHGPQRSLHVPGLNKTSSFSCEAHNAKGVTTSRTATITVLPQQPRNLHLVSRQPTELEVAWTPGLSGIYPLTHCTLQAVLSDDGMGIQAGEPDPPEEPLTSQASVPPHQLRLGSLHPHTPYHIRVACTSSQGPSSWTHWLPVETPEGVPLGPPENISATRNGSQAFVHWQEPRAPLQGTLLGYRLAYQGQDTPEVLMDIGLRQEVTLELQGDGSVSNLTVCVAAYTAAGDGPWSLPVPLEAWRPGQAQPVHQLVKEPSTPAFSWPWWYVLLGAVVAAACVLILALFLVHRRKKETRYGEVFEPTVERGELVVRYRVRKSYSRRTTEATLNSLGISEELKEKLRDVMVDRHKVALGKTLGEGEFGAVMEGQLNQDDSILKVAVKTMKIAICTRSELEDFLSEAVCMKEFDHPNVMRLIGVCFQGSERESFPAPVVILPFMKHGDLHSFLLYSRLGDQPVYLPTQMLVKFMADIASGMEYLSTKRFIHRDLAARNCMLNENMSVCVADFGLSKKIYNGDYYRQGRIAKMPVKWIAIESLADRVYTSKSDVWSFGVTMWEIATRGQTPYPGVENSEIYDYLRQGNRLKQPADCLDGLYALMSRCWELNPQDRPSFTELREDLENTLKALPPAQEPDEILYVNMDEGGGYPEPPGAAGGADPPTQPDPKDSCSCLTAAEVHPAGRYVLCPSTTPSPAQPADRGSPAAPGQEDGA

% of inhibition [1]: 12.2%
% of inhibition [2]: 14.9%
Compound: CC[C@@H]1[C@H](F)C(=O)N[C@@H]1COc1nccc2cc(C(N)=O)c(OC)cc12 [ZIMLOVISERTIB]

Compound: C=CC(=O)Nc1cccc(C(=O)Nc2ccc(Nc3cc(-c4[nH]c(SC)nc4C)ccn3)cc2)c1
% of control ([3]; at 1 µM): 141%
% of control ([3]; at 5 µM): 89%

Compound: Cc1cc(C)cc([C@@H]2c3cc(C)ccc3NC(=O)CN2C(=O)c2ccc(Br)s2)c1
% of activity ([4]; at 1 µM): 96%
% of activity ([4]; at 10 µM): 96.3%

Compound: Cc1cc(F)c(C(=O)Nc2cccc(-c3nncn3C(C)C)n2)cc1-n1cnc(C2CC2)c1
% of control [5]: 87%

Compound: C=CC(=O)Nc1cc(-n2c(=O)ccc3cnc4ccc(-c5ccc(NS(C)(=O)=O)cc5)cc4c32)ccc1C
% of control ([6]; at 1 µM): 92%
% of control ([6]; at 10 µM): 100%

From ChEMBL document CHEMBL5465560, “Selectivity Literature for EUbOPEN Chemogenomic Library” (2024)
